The values below come from patent publication US8772298B2, “Spirocyclic heterocycles medicaments containing said compounds, use thereof and method for their production” (Boehringer Ingelheim International GmbH, priority 2008, dated 2014).

For this test, the target named is T1, human EGF-R (Homo sapiens, UniProt P00533).
T1 construct: expressed in transfected cells
As to the kind of experiment: Inhibition of EGFR-dependent proliferation (EGF-stimulated murine haematopoietic cell line expressing human EGF-R). Type of test: cell-based. The conditions noted are these: 20 ng/ml human EGF, 48 hours at 37° C., Cell Titer 96 AQueous assay. The protocol: A murine haematopoietic cell line is genetically modified so as to express functional human EGF-R. The proliferation of this cell line can therefore be stimulated by EGF.
The test is carried out as follows:
The cells are cultivated in RPMI/1640 medium. The proliferation is stimulated with 20 ng/ml of human EGF (Promega). To investigate the inhibitory activity of the compounds according to the invention these compounds are dissolved in 100% dimethylsulphoxide (DMSO) and added to the cultures in various dilutions, the maximum DMSO concentration being 1%. The cultures are incubated for 48 hours at 37° C.
In order to determine the inhibitory activity of the compounds according to the invention the relative cell number is measured in O.D. Units using the Cell Titer 96™ AQueous Non-Radioactive Cell Proliferation Assay (Promega). The relative cell number is calculated as a percentage of the control and the concentration of active substance which inhibits the proliferation of the cells by 50% (IC50) is derived therefrom.

What is called IC50 is the concentration at which inhibition is half-maximal. Higher therefore signals weaker potency in that assay.

T1 sequence (P00533 25-1210): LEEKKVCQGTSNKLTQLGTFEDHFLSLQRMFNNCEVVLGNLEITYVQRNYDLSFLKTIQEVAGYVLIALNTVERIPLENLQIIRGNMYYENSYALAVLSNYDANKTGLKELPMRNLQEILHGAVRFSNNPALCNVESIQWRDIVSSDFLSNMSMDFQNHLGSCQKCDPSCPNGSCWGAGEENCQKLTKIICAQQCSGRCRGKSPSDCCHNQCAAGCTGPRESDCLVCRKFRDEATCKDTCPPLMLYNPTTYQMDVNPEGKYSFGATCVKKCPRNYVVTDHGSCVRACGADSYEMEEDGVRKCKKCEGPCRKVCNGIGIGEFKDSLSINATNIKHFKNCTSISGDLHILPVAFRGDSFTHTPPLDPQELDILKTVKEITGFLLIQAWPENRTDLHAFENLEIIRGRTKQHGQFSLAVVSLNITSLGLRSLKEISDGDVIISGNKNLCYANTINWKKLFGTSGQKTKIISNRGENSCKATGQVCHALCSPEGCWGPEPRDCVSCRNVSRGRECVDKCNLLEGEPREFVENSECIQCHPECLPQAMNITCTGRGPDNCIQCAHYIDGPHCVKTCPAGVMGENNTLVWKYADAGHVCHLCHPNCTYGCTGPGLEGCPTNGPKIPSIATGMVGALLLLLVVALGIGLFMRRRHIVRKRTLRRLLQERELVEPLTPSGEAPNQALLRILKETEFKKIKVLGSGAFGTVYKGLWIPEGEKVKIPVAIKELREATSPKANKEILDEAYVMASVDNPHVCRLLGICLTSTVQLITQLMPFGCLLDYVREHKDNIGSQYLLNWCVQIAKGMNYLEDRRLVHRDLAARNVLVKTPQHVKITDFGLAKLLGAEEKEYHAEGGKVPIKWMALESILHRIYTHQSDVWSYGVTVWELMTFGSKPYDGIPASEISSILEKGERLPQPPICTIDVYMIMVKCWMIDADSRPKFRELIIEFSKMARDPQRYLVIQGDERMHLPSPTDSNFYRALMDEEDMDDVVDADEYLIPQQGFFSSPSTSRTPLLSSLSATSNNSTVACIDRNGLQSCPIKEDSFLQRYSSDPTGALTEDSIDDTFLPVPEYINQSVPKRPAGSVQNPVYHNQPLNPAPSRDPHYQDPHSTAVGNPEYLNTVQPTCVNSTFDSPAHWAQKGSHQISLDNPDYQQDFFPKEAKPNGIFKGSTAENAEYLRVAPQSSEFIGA

For `COc1cc2ncnc(Nc3cccc(Cl)c3F)c2cc1O[C@H]1CC[C@]2(CC1)C(=O)NCCN2C` [Example 2, anti-9-[4-(3-chloro-2-fluoro-phenylamino)-7-methoxy-quinazolin-6-yloxy]-1-methyl-1,4-diaza-spiro[5.5]undecan-5-one], half-maximal inhibition (IC50) required 1 nM.

Consider `COc1cc2ncnc(Nc3cccc(Cl)c3F)c2cc1O[C@H]1CC[C@@]2(CC1)NCCNC2=O` [Example 1, anti-9-[4-(3-chloro-2-fluoro-phenylamino)-7-methoxy-quinazolin-6-yloxy]-1,4-diaza-spiro[5.5]undecan-5-one], for which the IC50 is 4 nM.

`COc1cc2ncnc(Nc3cccc(Cl)c3F)c2cc1O[C@H]1CC[C@]2(CC1)NCCNC2=O` [1(2), syn-9-[4-(3-chloro-2-fluoro-phenylamino)-7-methoxy-quinazolin-6-yloxy]-1,4-diaza-spiro[5.5]undecan-5-one] registered an IC50 of 2 nM.

Turning to `COc1cc2ncnc(Nc3cccc(Cl)c3F)c2cc1O[C@H]1CC[C@]2(CC1)C(=O)N(C)CCN2C` [2(1), anti-9-[4-(3-chloro-2-fluoro-phenylamino)-7-methoxy-quinazolin-6-yloxy]-1,4-dimethyl-1,4-diaza-spiro[5.5]undecan-5-one], the IC50 worked out at 2 nM. This counts as single-digit nanomolar.

Consider `COc1cc2ncnc(Nc3cccc(Cl)c3F)c2cc1O[C@H]1CC[C@@]2(CC1)NCCN(C)C2=O` [1(1), anti-9-[4-(3-chloro-2-fluoro-phenylamino)-7-methoxy-quinazolin-6-yloxy]-4-methyl-1,4-diaza-spiro[5.5]undecan-5-one], for which the IC50 was 2 nM.
